The text below walks through data of patent US10702512B2, “Treatment of debilitating fatigue” (A. CARLSSON RESEARCH AB, priority 2015, dated 2020).

The assay has as its system ME/CFS patients. Put plainly: mental fatigue self-assessment questionnaire (MFS) total score, phase II clinical study. The assay is classed as in vivo, human. As for the experimental part: As used herein, the term “MFS” refers to a the mental fatigue self-assessment questionnaire (Johansson B et al (2010) Brain Injury 2010; 24:2-12). […] Circular coated tablets for oral use of 15 mg and matching placebos was used. The tablets were administered by research nurses at the study site. The tablets were circular coated tablets for oral use containing 15 mg OSU6162. Matching placebos were used. The start dose was 15 mg OSU6162 twice daily (before breakfast and lunch) during 1 week with dose increase up to 30 mg twice daily during the following week. Efficacy was measured according to ratings using the self-assessment questionnaire for mental fatigue and related symptoms (MFS) after neurological disorders and injuries (Johansson et al, supra). Another primary endpoint was the result of the rating by the Clinical Global Impression of Change (Guy, supra), which rating was made by the doctor in charge of the patient. CGI-C scores range from 1 (very much improved) through to 7 (very much worse). To examine the effect of treatment and concomitant use of an antidepressant, antidepressant was included as a fixed factor in the analyses. […] Outcome targets FF, MFS and BDI were measured.

In the case of `CCCN1CCC[C@@H](c2cccc(S(C)(=O)=O)c2)C1.Cl` [OSU6162, (3S)-3-[3-(methylsulfonyl)-phenyl]-1-propylpiperidine hydrochloride], the “MFS overall group difference between OSU6162 and placebo” value (2-way ANOVA, F1,60=3.997, p=0.050) is listed as “borderline significant trend”. Also, the “MFS interaction between treatment with OSU6162 and antidepressant over time” value (3-way ANOVA week*treatm*antidepr, F3,180=2.755, p=0.044) is reported as “statistically significant 3-way interactions”. The “MFS overall difference between OSU6162 and placebo” value (3-way analysis with antidepressant as fixed factor, F1,60=3.578, p=0.063) was “tendency to an overall difference”. Besides, the “MFS difference between OSU6162 treated and placebo treated patients” value (patients not on antidepressant therapy, post hoc comparison) is given as “No difference”. For the setting “patients on stable antidepressant therapy, after one week of treatment, F1,56=5.915, p=0.018, Bonferroni”, the “MFS change from week 0, difference OSU6162 vs placebo (95% CI)” value is listed as −4.82 (−8.79 to −0.85).
